Source: patent US20220177459A1, “AROMATIC AMINE COMPOUND AND USE THEREOF IN PREPARATION OF AR AND BRD4 DUAL INHIBITORS AND REGULATORS” (HINOVA PHARMACEUTICALS INC., priority 2019, published 2022)

Experiments:
[1] = biological target: T1, androgen receptor (AR) (Homo sapiens, UniProt P10275); assay: Inhibitory activity on the function of androgen receptor (AR), luciferase reporter in transfected cells; assay type: cell-based; conditions: transfected with AR and pGL4.36, testosterone 2 nM, Steady-Glo
T1 construct: host or cells: HEK293
T1 sequence (P10275 1-920): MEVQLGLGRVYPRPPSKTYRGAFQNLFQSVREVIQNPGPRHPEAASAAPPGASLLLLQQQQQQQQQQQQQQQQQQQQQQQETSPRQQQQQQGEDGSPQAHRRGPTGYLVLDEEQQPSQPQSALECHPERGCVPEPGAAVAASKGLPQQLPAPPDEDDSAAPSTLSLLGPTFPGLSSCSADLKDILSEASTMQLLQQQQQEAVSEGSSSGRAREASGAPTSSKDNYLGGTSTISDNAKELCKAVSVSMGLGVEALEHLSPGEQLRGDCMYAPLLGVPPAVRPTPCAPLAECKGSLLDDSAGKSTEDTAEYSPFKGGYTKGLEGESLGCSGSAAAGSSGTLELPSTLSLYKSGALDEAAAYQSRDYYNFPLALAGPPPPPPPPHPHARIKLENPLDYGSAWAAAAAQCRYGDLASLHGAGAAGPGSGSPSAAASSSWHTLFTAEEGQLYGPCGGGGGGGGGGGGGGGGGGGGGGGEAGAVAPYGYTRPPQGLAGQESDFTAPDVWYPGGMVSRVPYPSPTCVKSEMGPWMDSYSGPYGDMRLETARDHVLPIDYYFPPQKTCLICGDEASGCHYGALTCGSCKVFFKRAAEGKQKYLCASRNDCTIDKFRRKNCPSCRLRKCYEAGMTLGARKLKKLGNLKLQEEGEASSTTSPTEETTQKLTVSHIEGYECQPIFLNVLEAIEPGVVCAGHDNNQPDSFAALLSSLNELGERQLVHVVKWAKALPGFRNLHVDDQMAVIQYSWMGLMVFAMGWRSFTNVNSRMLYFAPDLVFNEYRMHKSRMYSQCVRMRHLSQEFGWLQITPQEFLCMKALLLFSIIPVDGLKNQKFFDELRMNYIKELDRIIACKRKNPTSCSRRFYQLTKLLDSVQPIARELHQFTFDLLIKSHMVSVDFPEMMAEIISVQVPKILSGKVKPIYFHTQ
Experimental: Experimental Example 2 the Inhibitory Activity of the Compound According to the Present Invention on the Function of Androgen Receptor (AR)
Androgen receptor clone (Origene, Cat. No. RC235415)
pGL4.36 vector (Promega, Cat. No. E1360)
1) The cell suspension was diluted with the culture medium for seeding cells to a concentration of 4.0×10^5 cells/ml, for plating and adding transfection reagents.
2) The diluted cell suspension was inoculated into a cell culture plate, with 100 μL per well, and the plate was placed in a cell incubator and cultured overnight.
3) The transfection reagent was prepared as 10 μL/well, and added into the cell culture plate after 15 min at room temperature, then the plate was placed in a cell incubator and cultured overnight.
4) The compound was diluted by a 3-fold gradient with TECAN sampler, to obtain 8 concentration gradients, and the final DMSO concentration was 0.25%. The diluted compound was cultured in a 37° C. incubator for 30 min.
5) 250 nL of testosterone at a final concentration of 2 nM was added to the control well with an […] sampler, placed in a cell incubator, and cultured overnight.
6) Steady-Glo was added at 100 μL/well to the cell culture plate, and then the plate was left at room temperature for 15 min, followed by reading on Envision.
The data were analyzed according to the formula % Effect=(Sample value−LC)/(HC−LC)*100, using XL-fit software (provided by Business Solutions Ltd., version number XL fit 5.0). The inhibition rate of each compound against androgen receptor (AR) was calculated, and the half-inhibitory concentration IC50 of each compound against androgen receptor (AR) was further calculated.

[2] = system: LNCaP/AR cells; assay: Inhibition of proliferation of prostate cancer cells LNCaP/AR (CCK-8); assay type: cell-based; conditions: 144 h, 6 days culture, CCK-8, OD 450 nm, read-out: IC50 (μM), inhibitory activity on prostate cancer cell LNCap/AR
Experimental: 1. Biological determination of the inhibitory effect on the proliferation of prostate cancer cells LNCaP/AR
Cell culture medium: RIPM1640 media, 10% FBS, 1% Pen Strep;
(§1) 1) LNCaP/AR cells were subcultured in cell culture medium, and the cells in good growth condition were seeded in a 96-well plate, with 80 μL per well (i.e. 1000 cells per well), and cultured overnight in a 37° C., 5% CO2 cell incubator.
2) The drug was prepared with dimethylsulfoxide (DMSO) as a 10 mM stock solution.
(§2) Immediately before use, the stock solution was diluted 3 times with DMSO, and then diluted as a 3-fold gradient to obtain 9 concentration gradients. Then, the compound of each concentration was diluted 200 times with the culture media (to ensure that the DMSO concentration in the culture system was 0.1%), and two multiple holes were set for each concentration. 20 μL of the diluted compound was added to the cell culture well (with a final concentration of 10 μM, 3.3 μM, 1.1 μM . . . ), and then shook gently to mix. In addition, three negative control wells with only cells and three blank control wells with only culture medium were included (6 wells being each added with DMSO diluted 200 times with 20 μL culture medium).
(§3) 1) After culturing for 6 days, 10 μL of CCK-8 was added to each well and continued culturing for 1 hour in a 37° C., 5% CO2 cell incubator.
(§4) 2) The absorbance (OD value) was measured at 450 nm using a multifunctional microplate reader.
(§5) 3) The data were analyzed by the Dose-response-inhibition equation in the software GraphPad Prism5, and the IC50 value was obtained.

[3] = system: 22RV1 cells; assay: Inhibition of proliferation of other prostate cancer cells: 22RV1; assay type: cell-based; conditions: Homo sapiens, same method as LNCaP/AR
Experimental: as §1, §2, §3, §4, §5
(§6) 2. Biological determination of the inhibitory effect on the proliferation of other prostate cancer cells
(§7) The inhibitory activity of the compound according to the present invention on other drug-resistant prostate cancer cells was measured by the same method as described above, in which VCaP and 22RV1 cells were commercially available.

[4] = biological target: T2, BRD4 (D1+D2) protein (Homo sapiens, UniProt O60885); assay: HTRF binding to BRD4 (D1+D2) protein; conditions: BRD4(1,2), 2 h at room temperature, read-out: IC50 (μM), inhibitory activity on BRD4
T2 construct: purchased BPS 31044
Source text: Homogeneous time-resolved fluorescence technique (HTRF) was used to detect the binding effect of compound to BRD4 (D1+D2) protein.
Experimental materials: • BRD4(1,2) (BPS, Cat. No. 31044), • I-CBP 112 (MCE, Cat. No. HY-19541), • (+)-JQ1 (BPS, Cat. No. 27402).
Using homogeneous time-resolved fluorescence method, the detection steps are as follows:
1. According to the layout of the detection plate, the test compound was gradiently diluted on the Echo plate, and the final dilution concentration of DMSO was 0.1%.
2. The compound or DMSO was transferred to the 384-well detection plate with the Echo automatic sampler.
3. Two-fold concentration of protein and peptide mixture was added to the detection plate.
4. Two-fold concentration of the detection mixture was added to the detection plate, and shook for 30 s.
5. Incubating for 2 h at room temperature.
6. The fluorescence signal was read on the Envision multifunctional microplate reader (excitation wavelength at 340 nm; emission wavelength at 615 nm and 665 nm).
1. The experimental data were entered into an Excel file, and equation (1) was used to calculate the inhibition rate:
Inh %=(Max−Signal)/(Max−Min)*100 Equation (1)
2. The obtained data were input into GraphPad software, and equation (2) was used to calculate the IC50 value.
Y=Bottom+(Top−Bottom)/(1+10^((LogIC50−X)*Hill Slope)) Equation (2)
wherein, Y axis is the inhibition rate, while X axis is the compound concentration.

[5] = system: VCaP cells; assay: Inhibition of proliferation of other prostate cancer cells: VCaP; assay type: cell-based; conditions: Homo sapiens, same method as LNCaP/AR
Experimental: as §1, §2, §3, §4, §5, §6, §7

CCN(c1ccc(-n2ccnc2)c(Br)c1)c1cc(-c2c(C)noc2C)ccc1C [Compound 31, N-(3-bromo-4-(1H-imidazol-1-yl)phenyl)-5-(3,5-dimethylisoxazol-4-yl)-N-ethyl-2-methylaniline]
IC50 [1]: 2.1 µM | IC50 [2]: 0.54 µM | IC50 [3]: 9.37 µM | IC50 [4]: 6.3 µM | IC50 [5]: 1.35 µM

CCN(c1ccc(F)c(-n2ccnc2)c1)c1cc(-c2c(C)noc2C)ccc1C [Compound 83]
IC50 [1]: 0.83 µM | IC50 [3]: 5.2 µM | IC50 [4]: 6.7 µM | IC50 [5]: 1.27 µM

CCN(c1ccc(-n2ccnc2)c(Cl)c1)c1cc(-c2c(C)noc2C)ccc1C [Compound 30]
IC50 [2]: 0.9 µM | IC50 [3]: > 10 µM | IC50 [5]: 2.27 µM

CCN(c1ccc(-n2ccnc2)c(C(F)(F)F)c1)c1cc(-c2c(C)noc2C)ccc1C [Compound 32]
IC50 [2]: 1.4 µM | IC50 [3]: 3.5 µM | IC50 [5]: 0.98 µM

CCN(c1ccc(-n2ccnc2C)cc1)c1cc(-c2c(C)noc2C)ccc1C [Compound 27]
IC50 [1]: 0.89 µM | IC50 [2]: 0.38 µM | IC50 [3]: 3.77 µM | IC50 [4]: 4.1 µM | IC50 [5]: 0.99 µM

CCN(c1ccc(-n2cnc(C)c2)cc1)c1cc(-c2c(C)noc2C)ccc1C [Compound 26]
IC50 [2]: 1.14 µM | IC50 [3]: 4.08 µM | IC50 [5]: 1.16 µM

CCN(c1ccc(-n2cnnc2)cc1)c1cc(-c2c(C)noc2C)ccc1C [Compound 34]
IC50 [2]: 0.95 µM | IC50 [3]: 2.58 µM | IC50 [5]: 1 µM

CCN(c1ccc(Br)cc1)c1cc(-c2c(C)noc2C)ccc1C [Compound 116]
IC50 [1]: 4.9 µM | IC50 [2]: 0.61 µM | IC50 [3]: 0.63 µM

CCN(c1ccc(C2(C#N)CC2)cc1)c1cc(-c2c(C)noc2C)ccc1C [Compound 111, 1-(4-((5-(3,5-dimethylisoxazol-4-)-2-methylphenyl)(ethyl)amino)phenyl)cyclopropanecarbonitrile]
IC50 [1]: 1.6 µM | IC50 [2]: 0.14 µM | IC50 [3]: 0.27 µM

CCN(c1ccc(C#N)c(Cl)c1)c1cc(-c2c(C)noc2C)ccc1C [Compound 14]
IC50 [1]: 1.5 µM | IC50 [2]: 0.55 µM

CCN(c1ccc(C#N)c(Cl)c1)c1cc(-c2c(C)nn(C)c2C)ccc1C [Compound 2]
IC50 [1]: 0.78 µM | IC50 [2]: 0.51 µM | IC50 [3]: 5.2 µM | IC50 [5]: 0.78 µM

CCN(c1ccc(-n2ccnn2)cc1)c1cc(-c2c(C)noc2C)ccc1C [Compound 33]
IC50 [2]: 0.75 µM | IC50 [3]: 2.41 µM | IC50 [5]: 0.88 µM

CCN(c1ccc(-n2ccnc2)c(F)c1)c1cc(-c2c(C)noc2C)ccc1C [Compound 29]
IC50 [1]: 0.45 µM | IC50 [2]: 0.49 µM | IC50 [3]: 5.6 µM | IC50 [5]: 1.22 µM

CCN(c1ccc(-n2ccnn2)c(Br)c1)c1cc(-c2c(C)noc2C)ccc1C [Compound 45]
IC50 [1]: 1.7 µM | IC50 [2]: 0.82 µM | IC50 [3]: 7.75 µM | IC50 [4]: 1.9 µM | IC50 [5]: 0.75 µM
